{"source": "ChEMBL document CHEMBL1201862", "about": "“PubChem BioAssay data set” (2004)", "key": {"[1]": {"test": "LMP1-driven NF-kB reporter inhibition, dose response, cell-based, luciferase reporter, luminescence, dry powder, set 2 (AID 624376)", "type": "functional"}, "[2]": {"test": "MITF Orthogonal Assay: SK-MEL-5 CTG Assay Measured in Cell-Based System Using Plate Reader - 2084-02_Inhibitor_Dose_DryPowder_Activity_Set7.", "type": "functional"}, "[3]": {"test": "MITF: Counter assay: A375 proliferation Measured in Cell-Based System Using Plate Reader - 2084-03_Inhibitor_Dose_DryPowder_Activity_Set8.", "type": "functional", "details": "A-375"}, "[4]": {"test": "HEK293T cytotoxicity, dose response, cytotoxicity control for miR-122 modulator project, cell-based, activator set, cherry-pick (AID 720690);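 further: HEK293T human cells scored for general mammalian cytotoxicity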", "type": "functional"}, "[5]": {"test": "miR-122 activators in hepatoma reporter cells, dose response, cell-based, Huh7 psiCHECK-miR122, Renilla luciferase, cherry-picked (AID 651956);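 further: huh7 hepatoma cells stably carrying a psiCHECK-2 miR-122 sensor plasmid; renilla luciferase signal reporting endogenous miR-122 activity after 48 h compound exposure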", "type": "functional"}, "[6]": {"molecular_target": "T1, Sentrin-specific protease 1 (Homo sapiens, UniProt Q9P0U3)", "T1 sequence (Q9P0U3 whole entry)": "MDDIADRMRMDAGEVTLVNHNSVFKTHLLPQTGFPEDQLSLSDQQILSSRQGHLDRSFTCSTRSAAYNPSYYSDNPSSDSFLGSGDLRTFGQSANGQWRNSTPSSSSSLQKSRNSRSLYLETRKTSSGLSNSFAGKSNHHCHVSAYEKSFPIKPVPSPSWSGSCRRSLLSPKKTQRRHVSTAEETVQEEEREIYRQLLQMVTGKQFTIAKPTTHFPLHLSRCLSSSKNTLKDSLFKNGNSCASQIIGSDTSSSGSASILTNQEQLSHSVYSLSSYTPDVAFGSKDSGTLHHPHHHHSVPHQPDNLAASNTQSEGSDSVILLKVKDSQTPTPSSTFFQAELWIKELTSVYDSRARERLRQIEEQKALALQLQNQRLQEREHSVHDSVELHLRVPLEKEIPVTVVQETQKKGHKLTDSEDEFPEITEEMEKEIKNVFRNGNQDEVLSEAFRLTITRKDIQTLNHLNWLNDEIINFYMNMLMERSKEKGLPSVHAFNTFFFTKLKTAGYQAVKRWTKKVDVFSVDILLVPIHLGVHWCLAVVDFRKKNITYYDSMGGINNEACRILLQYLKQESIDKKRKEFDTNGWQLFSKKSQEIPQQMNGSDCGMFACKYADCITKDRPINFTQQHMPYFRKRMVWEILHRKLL", "test": "potency of human SENP1 inhibitors, dose response, biochemical, kinetic FRET (AID 651697)", "type": "functional", "details": "read-out: IC50_Mean"}, "[7]": {"molecular_target": "T1, Sentrin-specific protease 1", "test": "Dose response confirmation of small molecule inhibitors of the catalytic domain of the SUMO protease, SENP1 in a FRET assay.", "type": "functional", "details": "read-out: IC50_Mean"}, "[8]": {"test": "cytotoxicity in HEK-293T cells, dose response, cytotoxicity control for BCR NF-kB inhibitor project, luminescence, B-cell screen hits (AID 489021);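 further: cells exposed to compound for about 14 hours before viability readout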", "type": "functional, cell-based"}, "[9]": {"molecular_target": "T2, Botulinum neurotoxin type A (Clostridium botulinum (strain Hall / ATCC 3502 / NCTC 13319 / Type A), UniProt P0DPI1)", "T2 sequence (P0DPI1 2-448 limits assumed)": "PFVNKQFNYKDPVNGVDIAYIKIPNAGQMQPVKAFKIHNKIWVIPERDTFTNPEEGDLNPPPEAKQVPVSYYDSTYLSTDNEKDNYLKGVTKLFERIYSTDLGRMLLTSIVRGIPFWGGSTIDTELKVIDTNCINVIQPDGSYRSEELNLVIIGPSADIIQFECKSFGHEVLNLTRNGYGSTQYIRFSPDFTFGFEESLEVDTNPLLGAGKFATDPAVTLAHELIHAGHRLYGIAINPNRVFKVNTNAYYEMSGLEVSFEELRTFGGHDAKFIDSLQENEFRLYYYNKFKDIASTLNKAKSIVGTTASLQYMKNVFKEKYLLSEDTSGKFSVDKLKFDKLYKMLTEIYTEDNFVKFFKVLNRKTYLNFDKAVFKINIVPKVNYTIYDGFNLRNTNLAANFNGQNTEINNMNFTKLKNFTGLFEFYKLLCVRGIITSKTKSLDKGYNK", "test": "High-throughput multiplex microsphere dose response for inhibitors of toxin protease, specifically Botulinum neurotoxin light chain A protease, compounds from Powder Set 01.", "type": "functional, Clostridium botulinum A str. ATCC 3502", "details": "read-out: EC50_MICROM"}, "[10]": {"molecular_target": "T2, Botulinum neurotoxin type A", "test": "Confirmatory FRET assay using full length substrates for Botulinum neurotoxin light chain A protease, with Powder Set01.", "type": "functional"}, "Beta-galactosidase": {"molecular_target": "Beta-galactosidase (Escherichia coli, UniProt Q8VNN2)", "sequence (Q8VNN2 whole entry)": "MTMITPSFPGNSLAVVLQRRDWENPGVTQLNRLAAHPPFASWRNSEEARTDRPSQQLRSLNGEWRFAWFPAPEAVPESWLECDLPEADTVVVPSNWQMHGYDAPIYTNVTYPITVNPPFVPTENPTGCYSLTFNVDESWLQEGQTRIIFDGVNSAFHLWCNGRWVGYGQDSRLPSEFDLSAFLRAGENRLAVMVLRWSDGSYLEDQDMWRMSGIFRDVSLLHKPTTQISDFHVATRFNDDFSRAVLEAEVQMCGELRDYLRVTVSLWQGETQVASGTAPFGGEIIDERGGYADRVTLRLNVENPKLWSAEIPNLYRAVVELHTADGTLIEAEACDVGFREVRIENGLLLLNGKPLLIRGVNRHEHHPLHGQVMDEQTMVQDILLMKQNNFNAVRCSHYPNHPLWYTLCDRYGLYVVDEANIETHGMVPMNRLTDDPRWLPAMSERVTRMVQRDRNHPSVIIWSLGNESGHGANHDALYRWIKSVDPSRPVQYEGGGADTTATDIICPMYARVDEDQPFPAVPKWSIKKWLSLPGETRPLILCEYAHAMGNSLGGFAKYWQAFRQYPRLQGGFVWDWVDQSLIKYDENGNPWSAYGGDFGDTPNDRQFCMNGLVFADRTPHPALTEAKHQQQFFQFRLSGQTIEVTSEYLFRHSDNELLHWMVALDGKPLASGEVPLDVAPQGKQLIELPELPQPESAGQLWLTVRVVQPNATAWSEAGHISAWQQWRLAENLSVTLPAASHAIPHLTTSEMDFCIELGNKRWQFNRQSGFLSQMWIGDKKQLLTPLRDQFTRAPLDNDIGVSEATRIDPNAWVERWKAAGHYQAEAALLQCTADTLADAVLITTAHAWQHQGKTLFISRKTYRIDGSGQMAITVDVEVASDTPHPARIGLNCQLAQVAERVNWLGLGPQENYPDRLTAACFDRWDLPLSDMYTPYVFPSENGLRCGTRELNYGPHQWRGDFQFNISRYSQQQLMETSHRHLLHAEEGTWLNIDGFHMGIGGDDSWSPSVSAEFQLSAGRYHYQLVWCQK", "test": "Dose response counterscreen for EBI2 assay utilizing the enzyme, b-galactosidase.", "type": "functional"}, "[11]": {"molecular_target": "DNA dC->dU-editing enzyme APOBEC-3G (Homo sapiens, UniProt Q9HC16)", "sequence (Q9HC16 whole entry)": "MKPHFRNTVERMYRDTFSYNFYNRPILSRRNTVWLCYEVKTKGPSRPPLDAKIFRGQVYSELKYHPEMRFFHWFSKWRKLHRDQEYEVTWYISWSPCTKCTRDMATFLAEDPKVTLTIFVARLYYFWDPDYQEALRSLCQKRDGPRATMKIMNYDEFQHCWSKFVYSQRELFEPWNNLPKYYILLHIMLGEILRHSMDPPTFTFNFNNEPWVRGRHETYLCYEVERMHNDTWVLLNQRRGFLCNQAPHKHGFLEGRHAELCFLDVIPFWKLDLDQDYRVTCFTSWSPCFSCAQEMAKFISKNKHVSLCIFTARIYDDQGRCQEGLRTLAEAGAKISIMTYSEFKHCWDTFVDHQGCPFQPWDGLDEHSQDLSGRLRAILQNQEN", "test": "Dose Response confirmation of small molecule APOBEC3G DNA Deaminase Inhibitors via a fluorescence-based single-stranded DNA deaminase assay. [Related pubchem assays (depositor defined):AID493012, AID493028]", "type": "functional"}, "Beta-lactamase [12]": {"molecular_target": "T3, Beta-lactamase (Pseudomonas aeruginosa, UniProt Q79MP6)", "T3 sequence (Q79MP6 whole entry)": "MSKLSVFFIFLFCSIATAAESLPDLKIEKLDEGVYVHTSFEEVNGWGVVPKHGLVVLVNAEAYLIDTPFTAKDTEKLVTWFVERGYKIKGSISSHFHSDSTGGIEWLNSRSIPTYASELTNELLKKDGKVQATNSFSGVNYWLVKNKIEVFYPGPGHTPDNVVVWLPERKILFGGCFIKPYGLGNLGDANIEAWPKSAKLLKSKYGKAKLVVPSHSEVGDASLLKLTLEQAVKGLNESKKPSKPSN", "test": "[…] counterscreen for selective VIM-2 inhibitors: dose response biochemical high throughput screening assay to identify inhibitors of IMP-1 metallo-beta-lactamase."}, "Beta-lactamase [13]": {"molecular_target": "T3, Beta-lactamase", "test": "IMP-1 metallo-beta-lactamase inhibitors, dose response, selectivity assay for VIM-2 inhibitor project, biochemical, epi-absorbance (AID 1920)"}, "[14]": {"molecular_target": "DNA dC->dU-editing enzyme APOBEC-3A (Homo sapiens, UniProt P31941)", "sequence (P31941 whole entry)": "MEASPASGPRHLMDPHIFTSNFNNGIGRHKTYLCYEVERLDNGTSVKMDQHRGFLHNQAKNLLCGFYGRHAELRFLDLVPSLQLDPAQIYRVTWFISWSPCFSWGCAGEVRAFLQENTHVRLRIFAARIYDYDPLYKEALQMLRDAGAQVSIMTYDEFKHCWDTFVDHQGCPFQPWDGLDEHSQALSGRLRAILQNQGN", "test": "APOBEC3A DNA deaminase inhibitors, dose response, biochemical (AID 504722)", "type": "functional"}, "Beta-lactamase [15]": {"molecular_target": "Beta-lactamase (Salmonella choleraesuis (strain SC-B67), UniProt Q5J463)", "sequence (Q5J463 whole entry)": "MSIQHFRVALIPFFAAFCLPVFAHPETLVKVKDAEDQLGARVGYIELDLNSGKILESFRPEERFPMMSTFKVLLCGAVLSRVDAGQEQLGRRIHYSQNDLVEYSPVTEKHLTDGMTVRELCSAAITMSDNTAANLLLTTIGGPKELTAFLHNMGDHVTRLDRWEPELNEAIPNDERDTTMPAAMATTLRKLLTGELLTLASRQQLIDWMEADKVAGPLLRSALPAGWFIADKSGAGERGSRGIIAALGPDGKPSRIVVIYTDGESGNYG", "test": "Epi-absorbance-based counterscreen for selective VIM-2 inhibitors: dose response biochemical high throughput screening assay to identify inhibitors of TEM-1 serine-beta-lactamase."}, "[16]": {"test": "Late stage assay provider results from the probe development effort to identify selective inhibitors of heat shock protein 90 (HSP90): Absorbance-based cell proliferation assay in SKBR3 cells.", "type": "functional", "details": "SK-BR-3"}, "[17]": {"test": "Late stage assay provider results from the probe development effort to identify selective inhibitors of heat shock protein 90 (HSP90): Absorbance-based cell proliferation assay in MCF7 cells.", "type": "functional"}}, "note": "The source made the active and inactive calls."}
{"compound": "C[C@H](NC(=O)C[C@H]1C[C@@H]2c3cc(NC(=O)c4cccnc4)ccc3O[C@@H]2[C@@H](CO)O1)c1ccccc1", "values": [{"measurement": "AbsAC35", "setting": "[1]", "value": 164.54, "unit": "µM"}]}
{"compound": "O=C1C=C(NCc2ccccc2)C(=O)c2ccccc21", "values": [{"measurement": "AC50", "setting": "[2]", "value": "7.74 µM (active)"}, {"measurement": "AC50", "setting": "[3]", "value": "> 70 µM (inactive)"}]}
{"compound": "CN1C(=O)c2cc(NC(=O)c3cccc(F)c3)ccc2OC[C@H]2O[C@H](CC(=O)N3CCc4ccccc4C3)CC[C@@H]21", "values": [{"measurement": "AC50", "setting": "[4]", "value": "31.3 µM (active)"}, {"measurement": "AC50", "setting": "[5]", "value": "18.8 µM (active)"}]}
{"compound": "N#CC1=C(N)Oc2cc(Nc3ccccc3)ccc2C1c1ccncc1", "note": "(stereo not drawn)", "values": [{"measurement": "IC50", "setting": "[6]", "value": "41.9 µM (inactive)"}, {"measurement": "IC50", "setting": "[7]", "value": "30.5 µM (inactive)"}, {"measurement": "IC50", "setting": "[8]", "value": "48.3 µM (inactive)"}]}
{"compound": "O=[N+]([O-])c1ccc([N+]2=N[C-](c3ccccc3)CC2c2ccccc2)cc1", "note": "(stereo not drawn)", "values": [{"measurement": "EC50", "setting": "[9]", "value": "0.3 µM (active)"}, {"measurement": "EC50", "setting": "[10]", "value": "1.1 µM (active)"}]}
{"compound": "Cc1ccc(Oc2ccc(Oc3ccc(C)cc3)nn2)cc1", "values": [{"measurement": "IC50", "setting": "Beta-galactosidase", "value": "> 80 µM (inactive)"}]}
{"compound": "Cn1c(-c2sccc2OCc2ccccc2)n[nH]c1=S", "values": [{"measurement": "IC50", "setting": "[11]", "value": "2.8 µM (active)"}, {"measurement": "IC50", "setting": "Beta-lactamase [12]", "value": "> 59.6 µM (inactive)"}, {"measurement": "IC50", "setting": "Beta-lactamase [13]", "value": "> 59.6 µM (inactive)"}, {"measurement": "IC50", "setting": "[14]", "value": "> 100 µM (inactive)"}, {"measurement": "IC50", "setting": "Beta-lactamase [15]", "value": "> 59.6 µM (inactive)"}]}
{"compound": "COc1ccc(N/C=C2/C=C(Br)C(=O)OC2=O)c(OC)c1", "values": [{"measurement": "IC50", "setting": "[16]", "value": "11.4 µM (inactive)"}, {"measurement": "IC50", "setting": "[17]", "value": "3.8 µM (active)"}]}
